Laboratory results: the NIST ThermoML archive (doi:10.1016/j.tca.2014.03.033)

Assay: molar heat capacity at constant pressure
Details: 101.33 kPa, Crystal, Vacuum adiabatic calorimetry

O=P([O-])([O-])[O-].O=P([O-])([O-])[O-].O=P([O-])([O-])[O-].[K+].[Th+4].[Th+4] [potassium dithorium trisphosphate]
Details	molar heat capacity at constant pressure [J/K/mol]
4 K	0.316
5 K	0.395
6 K	0.4889
7 K	0.5352
8 K	0.4432
9 K	0.3222
10 K	0.3252
15 K	2.606
20 K	6.715
25 K	12.67
30 K	19.97
35 K	28.47
40 K	37.38
45 K	46.43
50 K	56.01
60 K	73.35
70 K	91.89
80 K	109.4
90 K	125.4
100 K	140
110 K	153.5
120 K	166.2
130 K	178
140 K	189.2
150 K	199.8
160 K	209.9
170 K	219.6
180 K	229
190 K	238.2
200 K	247.3
210 K	256
220 K	264.2
230 K	271.8
240 K	278.6
250 K	284.7
260 K	290.3
270 K	295.7
273.15 K	297.5
280 K	301.3
290 K	307.4
